“And” between values parts separate entries of the source, which are not always exact repeats. Equal values may be shown once.
Legend:
[1] = biological target: Bromodomain-containing protein 7 (Homo sapiens) (UniProt Q9NPI1); conditions: Compound concentration 10.0 uM, Protein concentration 2.0 uM
[2] = biological target: SWI/SNF-related matrix-associated actin-dependent regulator of chromatin subfamily A member 2 (Homo sapiens) (UniProt P51531); conditions: Compound concentration 10.0 uM, Protein concentration 2.0 uM
[3] = biological target: Protein polybromo-1 (Homo sapiens) (UniProt Q86U86); conditions: Compound concentration 10.0 uM, Protein concentration 2.0 uM
[4] = biological target: Bromodomain testis-specific protein (Homo sapiens) (UniProt Q58F21); conditions: Compound concentration 10.0 uM, Protein concentration 2.0 uM
[5] = biological target: Protein polybromo-1 (Homo sapiens) (UniProt Q86U86); conditions: Compound concentration 10.0 uM, Protein concentration 2.0 uM; remark: listed apart in the source
[6] = biological target: Bromodomain-containing protein 2 (Homo sapiens) (UniProt P25440); conditions: Compound concentration 10.0 uM, Protein concentration 2.0 uM
[7] = biological target: Histone-lysine N-methyltransferase ASH1L (Homo sapiens) (UniProt Q9NR48); conditions: Compound concentration 10.0 uM, Protein concentration 2.0 uM
[8] = biological target: CREB-binding protein (Homo sapiens) (UniProt Q92793); conditions: Compound concentration 10.0 uM, Protein concentration 2.0 uM
[9] = biological target: ATPase family AAA domain-containing protein 2 (Homo sapiens) (UniProt Q6PL18); conditions: Compound concentration 10.0 uM, Protein concentration 2.0 uM
[10] = biological target: Transcription initiation factor TFIID subunit 1 (Homo sapiens) (UniProt P21675); conditions: Compound concentration 10.0 uM, Protein concentration 2.0 uM
[11] = biological target: Protein polybromo-1 (Homo sapiens) (UniProt Q86U86); conditions: Compound concentration 10.0 uM, Protein concentration 2.0 uM; remark: listed apart in the source
[12] = biological target: Bromodomain and WD repeat-containing protein 1 (Homo sapiens) (UniProt Q9NSI6); conditions: Compound concentration 10.0 uM, Protein concentration 2.0 uM
[13] = biological target: Bromodomain adjacent to zinc finger domain protein 2B (Homo sapiens) (UniProt Q9UIF8); conditions: Compound concentration 10.0 uM, Protein concentration 2.0 uM
[14] = biological target: Bromodomain-containing protein 9 (Homo sapiens) (UniProt Q9H8M2); conditions: Compound concentration 10.0 uM, Protein concentration 2.0 uM
[15] = biological target: Protein polybromo-1 (Homo sapiens) (UniProt Q86U86); conditions: Compound concentration 10.0 uM, Protein concentration 2.0 uM; remark: listed apart in the source
[16] = biological target: Bromodomain-containing protein 9 (Homo sapiens) (UniProt Q9H8M2); experiment: Alphascreen assay. Domain start/stop: L14-Q143; conditions: Compound concentration 4.0 uM, Protein concentration 5.0 uM
[17] = biological target: ATPase family AAA domain-containing protein 2B (Homo sapiens) (UniProt Q9ULI0); conditions: Compound concentration 10.0 uM, Protein concentration 2.0 uM
[18] = biological target: Transcription initiation factor TFIID subunit 1-like (Homo sapiens) (UniProt Q8IZX4); conditions: Compound concentration 10.0 uM, Protein concentration 2.0 uM
Peregrin (Homo sapiens) [19] = biological target: T1, Peregrin (Homo sapiens) (UniProt P55201); experiment: Alphascreen assay. Domain start/stop: M626-G740; conditions: Protein concentration 50.0 uM
T1 sequence (whole entry): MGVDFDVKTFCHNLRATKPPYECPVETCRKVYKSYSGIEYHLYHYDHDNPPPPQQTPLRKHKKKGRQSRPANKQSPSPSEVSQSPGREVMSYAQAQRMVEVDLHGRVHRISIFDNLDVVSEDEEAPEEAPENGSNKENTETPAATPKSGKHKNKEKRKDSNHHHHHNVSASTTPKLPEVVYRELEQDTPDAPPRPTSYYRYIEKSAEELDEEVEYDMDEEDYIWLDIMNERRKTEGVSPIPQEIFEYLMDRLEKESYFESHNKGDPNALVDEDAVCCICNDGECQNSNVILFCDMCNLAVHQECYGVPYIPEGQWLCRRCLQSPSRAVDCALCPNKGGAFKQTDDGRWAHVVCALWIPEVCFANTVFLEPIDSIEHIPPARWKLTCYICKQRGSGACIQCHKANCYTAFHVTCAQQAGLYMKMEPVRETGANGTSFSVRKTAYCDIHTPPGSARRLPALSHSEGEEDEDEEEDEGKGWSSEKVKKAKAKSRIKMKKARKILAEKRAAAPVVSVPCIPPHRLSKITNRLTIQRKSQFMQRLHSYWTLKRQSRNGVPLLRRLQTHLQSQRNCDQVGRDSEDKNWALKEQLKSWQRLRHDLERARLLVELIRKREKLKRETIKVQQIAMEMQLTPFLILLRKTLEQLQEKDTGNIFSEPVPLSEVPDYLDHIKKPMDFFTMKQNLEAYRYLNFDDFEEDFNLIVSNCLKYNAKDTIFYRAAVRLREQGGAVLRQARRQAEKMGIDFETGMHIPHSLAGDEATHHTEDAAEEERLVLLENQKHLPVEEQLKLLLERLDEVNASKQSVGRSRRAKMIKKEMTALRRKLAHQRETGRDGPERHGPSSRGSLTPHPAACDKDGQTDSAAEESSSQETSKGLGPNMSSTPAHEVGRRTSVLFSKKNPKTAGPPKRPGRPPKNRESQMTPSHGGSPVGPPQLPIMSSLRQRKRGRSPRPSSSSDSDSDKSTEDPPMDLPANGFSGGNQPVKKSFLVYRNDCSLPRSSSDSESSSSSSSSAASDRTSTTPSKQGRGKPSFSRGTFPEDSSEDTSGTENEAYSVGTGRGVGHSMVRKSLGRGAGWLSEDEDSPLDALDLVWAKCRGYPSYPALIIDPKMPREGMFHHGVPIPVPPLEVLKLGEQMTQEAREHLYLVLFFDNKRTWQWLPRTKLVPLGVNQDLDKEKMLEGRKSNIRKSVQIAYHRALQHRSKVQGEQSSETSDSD

[20] = biological target: Chromatin remodeling regulator CECR2 (Homo sapiens) (UniProt Q9BXF3); conditions: Compound concentration 10.0 uM, Protein concentration 2.0 uM
[21] = biological target: Transcription intermediary factor 1-alpha (Homo sapiens) (UniProt O15164); conditions: Compound concentration 10.0 uM, Protein concentration 2.0 uM
[22] = biological target: SWI/SNF-related matrix-associated actin-dependent regulator of chromatin subfamily A member 4 (Homo sapiens) (UniProt P51532); conditions: Compound concentration 10.0 uM, Protein concentration 2.0 uM
[23] = biological target: Transcription initiation factor TFIID subunit 1 (Homo sapiens) (UniProt P21675); conditions: Compound concentration 10.0 uM, Protein concentration 2.0 uM; remark: listed apart in the source
[24] = biological target: Transcription intermediary factor 1-beta (Homo sapiens) (UniProt Q13263); conditions: Compound concentration 10.0 uM, Protein concentration 2.0 uM
[25] = biological target: Bromodomain-containing protein 2 (Homo sapiens) (UniProt P25440); conditions: Compound concentration 10.0 uM, Protein concentration 2.0 uM; remark: listed apart in the source
[26] = biological target: Protein polybromo-1 (Homo sapiens) (UniProt Q86U86); conditions: Compound concentration 10.0 uM, Protein concentration 2.0 uM; remark: listed apart in the source
[27] = biological target: Bromodomain and WD repeat-containing protein 3 (Homo sapiens) (UniProt Q6RI45); conditions: Compound concentration 10.0 uM, Protein concentration 2.0 uM
[28] = biological target: Nuclear body protein SP140-like protein (Homo sapiens) (UniProt Q9H930); conditions: Compound concentration 10.0 uM, Protein concentration 2.0 uM
[29] = biological target: Chromatin remodeling regulator CECR2 (Homo sapiens) (UniProt Q9BXF3); conditions: Compound concentration 10.0 uM, Protein concentration 2.0 uM; remark: listed apart in the source
[30] = biological target: Bromodomain-containing protein 1 (Homo sapiens) (UniProt O95696); conditions: Compound concentration 10.0 uM, Protein concentration 2.0 uM
[31] = biological target: PH-interacting protein (Homo sapiens) (UniProt Q8WWQ0); conditions: Compound concentration 10.0 uM, Protein concentration 2.0 uM
[32] = biological target: Bromodomain adjacent to zinc finger domain protein 1A (Homo sapiens) (UniProt Q9NRL2); conditions: Compound concentration 10.0 uM, Protein concentration 2.0 uM
[33] = biological target: Histone acetyltransferase KAT2A (Homo sapiens) (UniProt Q92830); conditions: Compound concentration 10.0 uM, Protein concentration 2.0 uM
[34] = biological target: Histone acetyltransferase p300 (Homo sapiens) (UniProt Q09472); conditions: Compound concentration 10.0 uM, Protein concentration 2.0 uM
[35] = biological target: Nucleosome-remodeling factor subunit BPTF (Homo sapiens) (UniProt Q12830); conditions: Compound concentration 10.0 uM, Protein concentration 2.0 uM
[36] = biological target: Bromodomain-containing protein 3 (Homo sapiens) (UniProt Q15059); conditions: Compound concentration 10.0 uM, Protein concentration 2.0 uM
[37] = biological target: E3 ubiquitin-protein ligase TRIM33 (Homo sapiens) (UniProt Q9UPN9); experiment: Thermal Shift Assay. Domain start/stop: D882-P1073; conditions: Compound concentration 10.0 uM, Protein concentration 2.0 uM
[38] = biological target: Protein polybromo-1 (Homo sapiens) (UniProt Q86U86); conditions: Compound concentration 10.0 uM, Protein concentration 2.0 uM; remark: listed apart in the source
[39] = biological target: Bromodomain testis-specific protein (Homo sapiens) (UniProt Q58F21); conditions: Compound concentration 10.0 uM, Protein concentration 2.0 uM; remark: listed apart in the source
[40] = biological target: PH-interacting protein (Homo sapiens) (UniProt Q8WWQ0); conditions: Compound concentration 50.0 uM, Protein concentration 0.025 uM
[41] = biological target: Histone acetyltransferase KAT2B (Homo sapiens) (UniProt Q92831); conditions: Compound concentration 10.0 uM, Protein concentration 2.0 uM
[42] = biological target: Bromodomain and PHD finger-containing protein 3 (Homo sapiens) (UniProt Q9ULD4); conditions: Compound concentration 10.0 uM, Protein concentration 2.0 uM
[43] = biological target: Nuclear body protein SP140 (Homo sapiens) (UniProt Q13342); conditions: Compound concentration 10.0 uM, Protein concentration 2.0 uM
Peregrin (Homo sapiens) [44] = biological target: T1, Peregrin (Homo sapiens); conditions: Compound concentration 10.0 uM, Protein concentration 2.0 uM
[45] = biological target: Bromodomain-containing protein 4 (Homo sapiens) (UniProt O60885); experiment: Alphascreen assay. Domain start/stop: N44-E168; conditions: Compound concentration 25.0 uM, Protein concentration 6.25 uM
[46] = biological target: Tyrosine-protein kinase BAZ1B (Homo sapiens) (UniProt Q9UIG0); conditions: Compound concentration 10.0 uM, Protein concentration 2.0 uM
[47] = biological target: Bromodomain-containing protein 4 (Homo sapiens) (UniProt O60885); conditions: Compound concentration 10.0 uM, Protein concentration 2.0 uM
[48] = biological target: Histone-lysine N-methyltransferase 2A (Homo sapiens) (UniProt Q03164); conditions: Compound concentration 10.0 uM, Protein concentration 2.0 uM
[49] = biological target: Bromodomain-containing protein 3 (Homo sapiens) (UniProt Q15059); conditions: Compound concentration 10.0 uM, Protein concentration 2.0 uM; remark: listed apart in the source
[50] = biological target: Chromatin remodeling regulator CECR2 (Homo sapiens) (UniProt Q9BXF3); conditions: Compound concentration 4.0 uM, Protein concentration 19.0 uM
Peregrin (Homo sapiens) [51] = biological target: T1, Peregrin (Homo sapiens); conditions: Compound concentration 10.0 uM, Protein concentration 2.0 uM; remark: listed apart in the source
[52] = biological target: Transcription initiation factor TFIID subunit 1-like (Homo sapiens) (UniProt Q8IZX4); conditions: Compound concentration 10.0 uM, Protein concentration 2.0 uM; remark: listed apart in the source
[53] = biological target: Nucleosome-remodeling factor subunit BPTF (Homo sapiens) (UniProt Q12830)
Description: Alphascreen assay. Domain start/stop: S2791-H2911

[54] = biological target: Bromodomain adjacent to zinc finger domain protein 2A (Homo sapiens) (UniProt Q9UIF9); conditions: Compound concentration 10.0 uM, Protein concentration 2.0 uM

Chromatin remodeling regulator CECR2 (Homo sapiens), sequence (Q9BXF3 whole entry, looked up): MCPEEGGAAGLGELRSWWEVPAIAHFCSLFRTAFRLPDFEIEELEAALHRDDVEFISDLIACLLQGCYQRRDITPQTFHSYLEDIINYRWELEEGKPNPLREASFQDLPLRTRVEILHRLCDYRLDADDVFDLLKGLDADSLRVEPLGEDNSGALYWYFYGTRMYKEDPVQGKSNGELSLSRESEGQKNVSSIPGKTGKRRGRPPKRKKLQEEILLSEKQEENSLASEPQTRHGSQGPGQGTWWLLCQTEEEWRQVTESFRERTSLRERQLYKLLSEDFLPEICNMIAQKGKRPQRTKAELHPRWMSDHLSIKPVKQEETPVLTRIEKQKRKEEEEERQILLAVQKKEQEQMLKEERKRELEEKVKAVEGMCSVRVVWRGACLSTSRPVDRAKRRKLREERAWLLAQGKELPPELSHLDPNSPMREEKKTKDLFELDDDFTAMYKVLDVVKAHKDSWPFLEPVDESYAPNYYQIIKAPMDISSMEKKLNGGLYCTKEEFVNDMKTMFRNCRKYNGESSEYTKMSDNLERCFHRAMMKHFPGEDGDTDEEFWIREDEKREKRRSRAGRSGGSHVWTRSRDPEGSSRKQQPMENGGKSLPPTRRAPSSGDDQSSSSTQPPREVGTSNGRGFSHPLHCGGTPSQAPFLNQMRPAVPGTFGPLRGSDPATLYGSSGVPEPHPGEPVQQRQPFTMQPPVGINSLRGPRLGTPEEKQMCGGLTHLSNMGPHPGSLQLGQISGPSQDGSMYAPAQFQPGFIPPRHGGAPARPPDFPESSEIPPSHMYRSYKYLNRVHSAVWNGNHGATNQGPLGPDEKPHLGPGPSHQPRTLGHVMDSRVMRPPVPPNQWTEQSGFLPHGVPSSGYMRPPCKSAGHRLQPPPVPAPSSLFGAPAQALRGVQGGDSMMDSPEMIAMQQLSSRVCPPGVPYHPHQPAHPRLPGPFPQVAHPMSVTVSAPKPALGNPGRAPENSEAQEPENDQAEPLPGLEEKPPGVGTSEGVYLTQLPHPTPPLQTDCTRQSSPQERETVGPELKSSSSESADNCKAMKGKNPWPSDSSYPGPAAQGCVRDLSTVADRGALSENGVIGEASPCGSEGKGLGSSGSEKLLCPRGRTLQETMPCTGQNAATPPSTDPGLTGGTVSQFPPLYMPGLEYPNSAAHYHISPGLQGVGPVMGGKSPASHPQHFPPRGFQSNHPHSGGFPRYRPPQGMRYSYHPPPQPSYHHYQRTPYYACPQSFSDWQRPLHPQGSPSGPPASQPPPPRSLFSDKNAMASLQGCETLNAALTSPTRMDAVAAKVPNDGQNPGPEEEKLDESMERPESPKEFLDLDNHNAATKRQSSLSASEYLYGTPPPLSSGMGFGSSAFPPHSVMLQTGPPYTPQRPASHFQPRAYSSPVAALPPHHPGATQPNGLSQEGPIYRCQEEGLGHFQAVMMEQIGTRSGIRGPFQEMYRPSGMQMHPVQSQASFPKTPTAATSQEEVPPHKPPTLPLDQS
Protein polybromo-1 (Homo sapiens), sequence (Q86U86 whole entry): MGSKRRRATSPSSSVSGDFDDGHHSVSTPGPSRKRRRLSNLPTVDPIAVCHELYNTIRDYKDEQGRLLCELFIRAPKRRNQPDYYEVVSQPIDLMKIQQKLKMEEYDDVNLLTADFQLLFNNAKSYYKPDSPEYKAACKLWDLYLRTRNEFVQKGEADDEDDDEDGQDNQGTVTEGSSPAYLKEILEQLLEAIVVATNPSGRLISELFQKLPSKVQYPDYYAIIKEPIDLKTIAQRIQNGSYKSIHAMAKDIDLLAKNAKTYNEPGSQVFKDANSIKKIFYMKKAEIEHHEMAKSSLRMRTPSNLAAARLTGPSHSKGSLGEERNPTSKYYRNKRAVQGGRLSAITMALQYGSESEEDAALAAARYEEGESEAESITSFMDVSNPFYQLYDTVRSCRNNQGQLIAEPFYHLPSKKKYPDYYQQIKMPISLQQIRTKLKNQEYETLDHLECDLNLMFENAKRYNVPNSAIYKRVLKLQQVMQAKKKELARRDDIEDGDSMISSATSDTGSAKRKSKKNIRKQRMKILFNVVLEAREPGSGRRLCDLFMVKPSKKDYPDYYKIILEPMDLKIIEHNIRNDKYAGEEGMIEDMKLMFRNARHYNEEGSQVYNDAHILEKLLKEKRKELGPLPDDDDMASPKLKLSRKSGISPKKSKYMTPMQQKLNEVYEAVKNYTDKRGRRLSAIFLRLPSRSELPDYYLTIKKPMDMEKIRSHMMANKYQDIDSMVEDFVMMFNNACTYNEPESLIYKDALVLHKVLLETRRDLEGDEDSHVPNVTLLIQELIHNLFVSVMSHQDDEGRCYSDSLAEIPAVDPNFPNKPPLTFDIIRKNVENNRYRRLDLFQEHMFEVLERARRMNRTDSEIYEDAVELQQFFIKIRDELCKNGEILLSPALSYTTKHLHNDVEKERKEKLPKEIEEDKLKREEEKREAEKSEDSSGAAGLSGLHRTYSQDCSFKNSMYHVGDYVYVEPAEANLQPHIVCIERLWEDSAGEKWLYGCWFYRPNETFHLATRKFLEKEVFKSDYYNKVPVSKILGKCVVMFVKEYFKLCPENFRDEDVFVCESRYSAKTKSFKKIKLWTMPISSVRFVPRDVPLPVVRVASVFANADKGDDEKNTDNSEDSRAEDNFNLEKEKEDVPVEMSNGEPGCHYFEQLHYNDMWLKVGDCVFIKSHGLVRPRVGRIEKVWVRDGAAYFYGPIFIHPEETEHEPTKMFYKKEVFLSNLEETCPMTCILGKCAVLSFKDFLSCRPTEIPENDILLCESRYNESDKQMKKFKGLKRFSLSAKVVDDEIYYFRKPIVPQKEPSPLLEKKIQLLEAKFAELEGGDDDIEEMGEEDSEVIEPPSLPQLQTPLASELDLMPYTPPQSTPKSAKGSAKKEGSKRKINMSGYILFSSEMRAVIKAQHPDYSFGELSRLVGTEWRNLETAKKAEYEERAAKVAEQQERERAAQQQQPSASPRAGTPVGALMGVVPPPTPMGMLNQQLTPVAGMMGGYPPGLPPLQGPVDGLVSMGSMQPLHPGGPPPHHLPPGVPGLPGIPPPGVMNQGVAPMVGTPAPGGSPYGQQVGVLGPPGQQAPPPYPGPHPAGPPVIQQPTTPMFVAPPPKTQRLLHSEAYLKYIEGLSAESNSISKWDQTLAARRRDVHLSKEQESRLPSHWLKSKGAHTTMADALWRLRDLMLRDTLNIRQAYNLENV
Bromodomain-containing protein 9 (Homo sapiens), sequence (Q9H8M2 whole entry, the tested form may be a part): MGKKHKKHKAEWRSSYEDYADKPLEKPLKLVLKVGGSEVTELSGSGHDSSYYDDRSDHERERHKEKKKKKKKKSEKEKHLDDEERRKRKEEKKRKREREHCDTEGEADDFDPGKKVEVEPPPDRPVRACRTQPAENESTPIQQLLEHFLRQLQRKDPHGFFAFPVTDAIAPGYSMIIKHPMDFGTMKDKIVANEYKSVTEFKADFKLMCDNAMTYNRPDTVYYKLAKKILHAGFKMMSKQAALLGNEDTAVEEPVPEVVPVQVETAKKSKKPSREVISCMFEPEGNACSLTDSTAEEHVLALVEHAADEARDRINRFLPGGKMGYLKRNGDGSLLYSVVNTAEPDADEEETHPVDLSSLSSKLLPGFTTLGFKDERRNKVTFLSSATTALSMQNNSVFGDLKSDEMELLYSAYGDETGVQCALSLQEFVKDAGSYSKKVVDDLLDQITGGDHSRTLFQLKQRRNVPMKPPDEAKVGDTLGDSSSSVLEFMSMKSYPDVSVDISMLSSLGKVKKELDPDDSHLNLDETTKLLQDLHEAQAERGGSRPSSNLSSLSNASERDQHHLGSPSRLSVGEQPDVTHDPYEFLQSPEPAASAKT
Bromodomain-containing protein 2 (Homo sapiens), sequence (P25440 whole entry, looked up): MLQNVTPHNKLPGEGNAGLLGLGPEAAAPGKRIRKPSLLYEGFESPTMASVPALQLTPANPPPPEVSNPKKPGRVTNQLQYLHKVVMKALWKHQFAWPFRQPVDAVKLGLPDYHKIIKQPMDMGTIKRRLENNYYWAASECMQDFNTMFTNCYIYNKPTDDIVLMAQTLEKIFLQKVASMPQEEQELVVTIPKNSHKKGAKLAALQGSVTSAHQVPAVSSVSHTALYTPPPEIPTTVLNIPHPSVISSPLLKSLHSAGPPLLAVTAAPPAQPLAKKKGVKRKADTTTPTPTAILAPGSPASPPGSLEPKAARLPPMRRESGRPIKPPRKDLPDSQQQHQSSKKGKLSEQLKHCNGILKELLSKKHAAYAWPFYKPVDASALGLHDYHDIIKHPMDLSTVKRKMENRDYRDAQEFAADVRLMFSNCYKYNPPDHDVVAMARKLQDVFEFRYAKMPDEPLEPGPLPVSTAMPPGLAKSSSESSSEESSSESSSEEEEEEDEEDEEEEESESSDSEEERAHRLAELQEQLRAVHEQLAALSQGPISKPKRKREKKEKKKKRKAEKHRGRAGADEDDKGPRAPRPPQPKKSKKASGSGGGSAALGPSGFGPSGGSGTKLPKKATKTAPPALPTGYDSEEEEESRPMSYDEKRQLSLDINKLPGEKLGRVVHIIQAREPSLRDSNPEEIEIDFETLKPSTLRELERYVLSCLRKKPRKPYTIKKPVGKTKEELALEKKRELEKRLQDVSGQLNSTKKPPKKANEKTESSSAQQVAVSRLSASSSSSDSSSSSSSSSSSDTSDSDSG

ΔTm [1]: 10.1 °C and 10.7 °C
ΔTm [2]: 0.44 °C
ΔTm [3]: -0.12 °C
ΔTm [4]: 0.17 °C
ΔTm [5]: 0.16 °C
ΔTm [6]: 0.38 °C
ΔTm [7]: 0.17 °C
ΔTm [8]: 0.17 °C and -0.28 °C
ΔTm [9]: 0.02 °C
ΔTm [10]: 1.22 °C
ΔTm [11]: 0.15 °C and 0.13 °C
ΔTm [12]: -0.43 °C
ΔTm [13]: -0.02 °C
ΔTm [14]: 5.28 °C and 8.25 °C and 6.82 °C
ΔTm [15]: 0.01 °C
inhibition [16]: 95.6%
ΔTm [17]: 0.35 °C
ΔTm [18]: 0.24 °C
inhibition (Peregrin (Homo sapiens) [19]; Compound concentration 1.25 uM): 1.84%
inhibition (Peregrin (Homo sapiens) [19]; Compound concentration 4.0 uM): 3.88%
ΔTm [20]: 0.69 °C
ΔTm [21]: -0.09 °C
ΔTm [22]: 0.16 °C
ΔTm [23]: 0.33 °C
ΔTm [24]: 0.2 °C
ΔTm [25]: -0.14 °C
ΔTm [26]: 0.14 °C
ΔTm [27]: 0.82 °C
ΔTm [28]: 0.96 °C
ΔTm [29]: 0.17 °C
ΔTm [30]: 0.01 °C
ΔTm [31]: -0.48 °C
ΔTm [32]: -0.09 °C
ΔTm [33]: -0.21 °C
ΔTm [34]: 0.03 °C
ΔTm [35]: 1.82 °C
ΔTm [36]: 0.15 °C
ΔTm [37]: 0.14 °C
ΔTm [38]: 0.76 °C
ΔTm [39]: 0.06 °C
inhibition [40]: 1.4% and 14.2%
ΔTm [41]: 0.09 °C
ΔTm [42]: -0.05 °C
ΔTm [43]: 0.44 °C
ΔTm (Peregrin (Homo sapiens) [44]): -0.19 °C
inhibition [45]: 4.77%
ΔTm [46]: -0.45 °C
ΔTm [47]: -0.08 °C
ΔTm [48]: 0.6 °C
ΔTm [49]: -0.26 °C
inhibition [50]: 10.7%
ΔTm (Peregrin (Homo sapiens) [51]): -0.09 °C and 0.15 °C
ΔTm [52]: 0.27 °C
inhibition ([53]; Compound concentration 0.25 uM, Protein concentration 19.0 uM): 3.67%
inhibition ([53]; Compound concentration 0.25 uM, Protein concentration 20.0 uM): 7.02%
inhibition ([53]; Compound concentration 4.0 uM, Protein concentration 19.0 uM): 7.64%
ΔTm [54]: -0.38 °C
Structure (SMILES): Cc1cc(=O)n(C)c2cc(N3C(=O)CC[C@@H](NS(=O)(=O)CC(C)C)[C@@H]3c3ccc(Cl)cc3)ccc12

Source: ChEMBL document CHEMBL4649991
